Assays:
[1] = system: SK-GT-2 (Gastric Carcinoma); assay: combination Emax (second highest fraction inhibited in the dose matrix, 72 h); higher = more inhibition; extreme values may be limits of the assay
Summary of the method: (§1)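 After 24 hours at 37°C and 5% CO2 in 1536-well plates, cells in DMEM/F12 or RPMI plus 10% FBS received two-drug dose matrices for 72 hours. Viability came from CellTiter-Glo 2.0 luminescence and was scaled as inhibition, anchored at 0 by vehicle wells and at 1 by blank wells. Combination Emax is taken as the second-highest inhibition in the matrix, and Bliss excess as the observed combination effect less EA + EB − EA·EB, with EA and EB the single-agent effects.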

[2] = system: CHSA8926 (Chondrosarcoma); assay: Bliss excess, mean over the matrix (fraction); higher = more synergy
Summary of the method: as §1

[3] = system: SK-GT-2 (Gastric Carcinoma); assay: as above
Summary of the method: as §1

[4] = system: CW-2 (Colorectal Carcinoma); assay: as above
Summary of the method: as §1

[5] = system: COR-L279 (Small Cell Lung Carcinoma); assay: as above
Summary of the method: as §1

[6] = system: ESO51 (Esophageal Adenocarcinoma); assay: as above
Summary of the method: as §1

[7] = system: SK-GT-4 (Esophageal Adenocarcinoma); assay: as above
Summary of the method: as §1

[8] = system: NCI-H526 (Small Cell Lung Carcinoma); assay: as above
Summary of the method: as §1

[9] = system: JHH-4 (Hepatocellular Carcinoma); assay: as above
Summary of the method: as §1

[10] = system: IM-95 (Gastric Carcinoma); assay: as above
Summary of the method: as §1

[11] = system: H9 (T-Cell Non-Hodgkin's Lymphoma); assay: as above
Summary of the method: as §1

NCI-H2731 (Mesothelioma) = assay: as above
Summary of the method: as §1

[12] = system: T-T (Esophageal Squamous Cell Carcinoma); assay: as above
Summary of the method: as §1

[13] = system: VMRC-RCZ (Kidney Carcinoma); assay: as above
Summary of the method: as §1

[14] = system: MN-60 (B-Lymphoblastic Leukemia); assay: as above
Summary of the method: as §1

[15] = system: SU-DHL-5 (B-Cell Non-Hodgkin's Lymphoma); assay: as above
Summary of the method: as §1

G-361 (Melanoma) = assay: as above
Summary of the method: as §1

[16] = system: KU812 (Chronic Myelogenous Leukemia); assay: as above
Summary of the method: as §1

[17] = system: SUP-B15 (B-Lymphoblastic Leukemia); assay: as above
Summary of the method: as §1

[18] = system: KYSE-270 (Esophageal Squamous Cell Carcinoma); assay: as above
Summary of the method: as §1
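Wherever Bliss excess, mean over the matrix is given: after 72 h of two-drug dosing.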

## C=CCn1c(=O)c2cnc(Nc3ccc(N4CCN(C)CC4)cc3)nc2n1-c1cccc(C(C)(C)O)n1 [AZD1775] + C1CN(CCC1(C(=O)N[C@@H](CCO)C2=CC=C(C=C2)Cl)N)C3=NC=NC4=C3C=CN4 [Capivasertib] (first compound max 3 µM, partner max 3 µM)
[1]
  combination Emax: 0.83
[2]
  Bliss excess: 0.0361
[3]
  Bliss excess: 0.0174
[4]
  Bliss excess: -0.0487
[5]
  Bliss excess: -0.0276
[6]
  Bliss excess: -0.004
[7]
  Bliss excess: -0.0802
[8]
  Bliss excess: -0.06
[9]
  Bliss excess: 0.0061
[10]
  Bliss excess: 0.0275
[11]
  Bliss excess: -0.0311
NCI-H2731 (Mesothelioma)
  Bliss excess: 0.0078
[12]
  Bliss excess: -0.0047
[13]
  Bliss excess: -0.083
[14]
  Bliss excess: -0.0565
[15]
  Bliss excess: 0.0233
G-361 (Melanoma)
  Bliss excess: -0.0042
[16]
  Bliss excess: -0.0326
[17]
  Bliss excess: 0.0073

## CC(=O)Nc1cccc(-n2c(=O)n(C3CC3)c(=O)c3c(Nc4ccc(I)cc4F)n(C)c(=O)c(C)c32)c1 [Trametinib] + Cc1nc(-c2cn3c(n2)-c2ccc(-c4cnn(C(C)(C)C(N)=O)c4)cc2OCC3)n(C(C)C)n1 [Taselisib] (first compound max 1 µM, 7x7, partner max 10 µM)
[1]
  combination Emax: 0.723
[3]
  Bliss excess: 0.134
[4]
  Bliss excess: 0.122
[5]
  Bliss excess: -0.0486
[6]
  Bliss excess: 0.0533
[7]
  Bliss excess: 0.103
[8]
  Bliss excess: -0.0308
[9]
  Bliss excess: 0.0462
[18]
  Bliss excess: 0.176
[10]
  Bliss excess: 0.196
[11]
  Bliss excess: 0.0402
NCI-H2731 (Mesothelioma)
  Bliss excess: 0.0312
[12]
  Bliss excess: 0.245
[13]
  Bliss excess: 0.0186
[14]
  Bliss excess: 0.0265
[15]
  Bliss excess: 0.0452
G-361 (Melanoma)
  Bliss excess: 0.0078
[16]
  Bliss excess: 0.111
[17]
  Bliss excess: 0.539

## CS(=O)(=O)CCNCc1ccc(-c2ccc3ncnc(Nc4ccc(OCc5cccc(F)c5)c(Cl)c4)c3c2)o1 [Lapatinib] + NC1(c2ccc(-c3nc4ccn5c(=O)[nH]nc5c4cc3-c3ccccc3)cc2)CCC1 [MK-2206] (first compound max 10 µM, 7x7, partner max 10 µM)
[4]
  Bliss excess: -0.0434
[5]
  Bliss excess: 0.0229
[7]
  Bliss excess: 0.0402
[8]
  Bliss excess: 0.0254
[18]
  Bliss excess: 0.0262
[10]
  Bliss excess: 0.0488
[11]
  Bliss excess: -0.247
NCI-H2731 (Mesothelioma)
  Bliss excess: 0.0201
[12]
  Bliss excess: -0.0168
[13]
  Bliss excess: 0.0019
[14]
  Bliss excess: 0.0332
[16]
  Bliss excess: -0.0194

## COc1nnc2ccc(N3CCC(c4ccc(OCCN5CCN(C)C(=O)[C@H]5C)cc4)CC3)nn12 [AZD5153] + CN(CC[C@H](CSC1=CC=CC=C1)NC2=C(C=C(C=C2)S(=O)(=O)NC(=O)C3=CC=C(C=C3)N4CCC(CC4)[C@H](C5=CC=CC=C5C6=CC=C(C=C6)Cl)O)S(=O)(=O)C(F)(F)F)CCO [AZD4320] (first compound max 1 µM, 7x7, partner max 1 µM)
[1]
  combination Emax: 0.346
[2]
  Bliss excess: -0.0781
[3]
  Bliss excess: 0.0412
[6]
  Bliss excess: -0.0079
[9]
  Bliss excess: 0.0556
[10]
  Bliss excess: -0.0568
[11]
  Bliss excess: -0.0291
[15]
  Bliss excess: -0.0155
G-361 (Melanoma)
  Bliss excess: 0.0314
[17]
  Bliss excess: -0.0077

## Cc1c2c(nn1C)CSCc1cc(n(C)n1)CSc1cc(c3ccccc3c1)OCCCc1c(C(=O)O)n(C)c3c-2c(Cl)ccc13 [AZD5991] + Cc1cc2ncnn2cc1Nc1ncc2c(n1)n(C1CCOCC1)c(=O)n2C [AZD7648] (first compound max 1 µM, 7x7, partner max 10 µM)
[1]
  combination Emax: 0.192
[2]
  Bliss excess: -0.0376
[3]
  Bliss excess: 0.0164
[4]
  Bliss excess: 0.0242
[5]
  Bliss excess: 0.0671
[6]
  Bliss excess: -0.0216
[7]
  Bliss excess: -0.0651
[8]
  Bliss excess: -0.0042
[9]
  Bliss excess: -0.0217
[18]
  Bliss excess: -0.0342
[10]
  Bliss excess: -0.0615
NCI-H2731 (Mesothelioma)
  Bliss excess: -0.0637
[12]
  Bliss excess: 0.007
[13]
  Bliss excess: -0.0405
[14]
  Bliss excess: 0.0011
[15]
  Bliss excess: -0.0377
G-361 (Melanoma)
  Bliss excess: 0.0031
[16]
  Bliss excess: -0.0046
[17]
  Bliss excess: 0.0099

## CS(=O)(=O)CCNCc1ccc(-c2ccc3ncnc(Nc4ccc(OCc5cccc(F)c5)c(Cl)c4)c3c2)o1 [Lapatinib] + Cn1cnc2c(F)c(Nc3ccc(Br)cc3Cl)c(C(=O)NOCCO)cc21 [Selumetinib] (first compound max 10 µM, 7x7, partner max 10 µM)
[4]
  Bliss excess: 0.003
[5]
  Bliss excess: -0.0224
[7]
  Bliss excess: 0.0369
[8]
  Bliss excess: 0.0154
[18]
  Bliss excess: -0.0187
NCI-H2731 (Mesothelioma)
  Bliss excess: -0.012
[12]
  Bliss excess: 0.0514
[13]
  Bliss excess: -0.0149
[14]
  Bliss excess: -0.0751
[16]
  Bliss excess: 0.0082

## CCc1c2c(nc3ccc(O)cc13)-c1cc3c(c(=O)n1C2)COC(=O)[C@]3(O)CC [SN-38] + O=C(c1cc(Cc2n[nH]c(=O)c3ccccc23)ccc1F)N1CCN(C(=O)C2CC2)CC1 [Olaparib] (first compound max 0.3 µM, 7x7, partner max 10 µM)
[2]
  Bliss excess: 0.0247
[4]
  Bliss excess: 0.0293
[5]
  Bliss excess: 0.0742
[6]
  Bliss excess: -0.0199
[7]
  Bliss excess: 0.0257
[8]
  Bliss excess: 0.0278
[18]
  Bliss excess: 0.0159
[10]
  Bliss excess: 0.036
[11]
  Bliss excess: 0.111
NCI-H2731 (Mesothelioma)
  Bliss excess: 0.0324
[12]
  Bliss excess: -0.0243
[13]
  Bliss excess: 0.0072
[14]
  Bliss excess: 0.0066
[15]
  Bliss excess: 0.065
G-361 (Melanoma)
  Bliss excess: 0.0322
[16]
  Bliss excess: 0.0053
